Laboratory results published in ChEMBL document CHEMBL3286395, “Tabercarpamines A-J, apoptosis-inducing indole alkaloids from the leaves of Tabernaemontana corymbosa” (J Nat Prod, 2014).

How the values were obtained:
MCF7 = assay: Cytotoxicity against human MCF7 cells assessed as decrease in cell viability after 48 hrs by MTT assay; assay type: functional, cell-based; details: MCF7, 48 h
HepG2 [1] = assay: Cytotoxicity against human HepG2 cells assessed as decrease in cell viability after 48 hrs by MTT assay; assay type: functional, cell-based; details: HepG2, 48 h
SMMC-7721 = assay: Cytotoxicity against human SMMC7721 cells assessed as decrease in cell viability after 48 hrs by MTT assay; assay type: functional, cell-based; details: SMMC-7721, 48 h
HepG2 [2] = assay: Induction of apoptosis in human HepG2 cells assessed as necrotic cells at 6.25 uM after 48 hrs using annexin V-FITC/propidium iodide staining by flow cytometry (reference value: 2.39%); assay type: functional
HepG2 [3] = assay: Induction of apoptosis in human HepG2 cells assessed as late stage apoptotic cells at 6.25 uM after 48 hrs using annexin V-FITC/propidium iodide staining by flow cytometry (reference value: 0.65%); assay type: functional
HepG2 [4] = assay: Induction of apoptosis in human HepG2 cells assessed as viable cells at 6.25 uM after 48 hrs using annexin V-FITC/propidium iodide staining by flow cytometry (reference value: 86.80%); assay type: functional; details: HepG2, 48 h, read-out: Activity
HepG2 [5] = assay: Induction of apoptosis in human HepG2 cells assessed as early stage apoptotic cells at 6.25 uM after 48 hrs using annexin V-FITC/propidium iodide staining by flow cytometry (reference value: 10.15%); assay type: functional
HepG2 [6] = assay: Induction of apoptosis in human HepG2 cells assessed as necrotic cells at 12.50 uM after 48 hrs using annexin V-FITC/propidium iodide staining by flow cytometry (reference value: 2.39%); assay type: functional
HepG2 [7] = assay: Induction of apoptosis in human HepG2 cells assessed as late stage apoptotic cells at 12.50 uM after 48 hrs using annexin V-FITC/propidium iodide staining by flow cytometry (reference value: 0.65%); assay type: functional
HepG2 [8] = assay: Induction of apoptosis in human HepG2 cells assessed as viable cells at 12.50 uM after 48 hrs using annexin V-FITC/propidium iodide staining by flow cytometry (reference value: 86.80%); assay type: functional; details: HepG2, 48 h, read-out: Activity
HepG2 [9] = assay: Induction of apoptosis in human HepG2 cells assessed as early stage apoptotic cells at 12.50 uM after 48 hrs using annexin V-FITC/propidium iodide staining by flow cytometry (reference value: 10.15%); assay type: functional
HepG2 [10] = assay: Induction of apoptosis in human HepG2 cells assessed as necrotic cells at 25 uM after 48 hrs using annexin V-FITC/propidium iodide staining by flow cytometry (reference value: 2.39%); assay type: functional
HepG2 [11] = assay: Induction of apoptosis in human HepG2 cells assessed as late stage apoptotic cells at 25 uM after 48 hrs using annexin V-FITC/propidium iodide staining by flow cytometry (reference value: 0.65%); assay type: functional
HepG2 [12] = assay: Induction of apoptosis in human HepG2 cells assessed as viable cells at 25 uM after 48 hrs using annexin V-FITC/propidium iodide staining by flow cytometry (reference value: 86.80%); assay type: functional; details: HepG2, 48 h, read-out: Activity
HepG2 [13] = assay: Induction of apoptosis in human HepG2 cells assessed as early stage apoptotic cells at 25 uM after 48 hrs using annexin V-FITC/propidium iodide staining by flow cytometry (reference value: 10.15%); assay type: functional
HepG2 [14] = assay: Induction of apoptosis in human HepG2 cells assessed as apoptotic rate at 6.25 uM after 48 hrs using annexin V-FITC/propidium iodide staining by flow cytometry (reference value: 10.80%); assay type: functional
HepG2 [15] = assay: Induction of apoptosis in human HepG2 cells assessed as apoptotic rate at 12.50 uM after 48 hrs using annexin V-FITC/propidium iodide staining by flow cytometry (reference value: 10.80%); assay type: functional
HepG2 [16] = assay: Induction of apoptosis in human HepG2 cells assessed as apoptotic rate at 25 uM after 48 hrs using annexin V-FITC/propidium iodide staining by flow cytometry (reference value: 10.80%); assay type: functional

SMILES | IC50 (MCF7) [µM] | IC50 (HepG2 [1]) [µM] | IC50 (SMMC-7721) [µM] | other results
C/C=C1/CN(C)[C@H]2Cc3c([nH]c4ccccc34)[C@H](c3cc4c5c6n(c4cc3OC)C[C@H]3C[C@@H](CC)[C@@H](NCC5)[C@@]6(C(=O)OC)C3)C[C@H]1[C@]2(CO)C(=O)OC | 8.54 | 3.31 | 6.76 | Activity (HepG2 [2]): 3.17%; Activity (HepG2 [3]): 1.63%; viability at 6.25 µM (HepG2 [4]): 85%; Activity (HepG2 [5]): 10.19%; Activity (HepG2 [6]): 7.85%; Activity (HepG2 [7]): 8.47%; viability at 12.5 µM (HepG2 [8]): 72.4%; Activity (HepG2 [9]): 11.3%; Activity (HepG2 [10]): 15.59%; Activity (HepG2 [11]): 30.97%; viability at 25 µM (HepG2 [12]): 33.9%; Activity (HepG2 [13]): 19.54%; Activity (HepG2 [14]): 11.82%; Activity (HepG2 [15]): 19.77%; Activity (HepG2 [16]): 50.51%
C/C=C1/CN(C)[C@H]2Cc3c([nH]c4ccccc34)[C@H](c3cc4c(cc3OC)c3c5n4C[C@H]4C[C@@H](CC)[C@@H](NCC3)[C@@]5(C(=O)OC)C4)C[C@H]1[C@]2(CO)C(=O)OC | 11 | 11.3 | 15 | 
CC[C@]1(C(=O)O)C[C@@H](C(=O)OC)C2=Nc3cc(OC)ccc3[C@@]23CCN(CCO)[C@@H]13 | > 100 | > 100 | > 100 | 
CC[C@]1(C(=O)O)C[C@@H](C(=O)OC)C2=Nc3cc(OC)ccc3[C@@]23CCN(CCO)[C@H]13 | > 100 | > 100 | > 100 | 
CC[C@@]12C[C@@H](C(=O)OC)C3=Nc4cc(OC)ccc4[C@@]34CCN(CCOC1=O)[C@@H]24 | > 100 | > 100 | > 100 | 
CC[C@@]12C[C@@H](C(=O)OC)C3=Nc4cc(OC)ccc4[C@@]34CCN(CCOC1=O)[C@H]24 | > 100 | > 100 | > 100 | 
CC[C@H]1C[C@@H]2Cn3c4c(c5ccc(OC)cc53)CCN[C@H]1[C@@]4(C(=O)OC)C2 | > 100 | > 100 | > 100 | 
COC(=O)[C@@]12C[C@@H]3C[C@H]([C@H](C)O)[C@H]1NCCc1c2n(c2cc(OC)ccc12)C3 | > 100 | > 100 | > 100 | 
CC[C@H]1C[C@H]2C[C@@]3(C(=O)OC)c4c(c5ccc(OC)cc5n4C2=O)CCN[C@H]13 | > 100 | > 100 | > 100 | 
COC(=O)[C@@]12C[C@@H]3C[C@H]([C@H](C)O)[C@H]1NCCc1c2n(c2ccccc12)C3 | > 100 | > 100 | > 100 | 
C/C=C1/CN(C)[C@H]2Cc3c([nH]c4ccccc34)[C@H](c3c(OC)ccc4c5c([nH]c34)[C@@]3(C(=O)OC)C[C@H]4C[C@H](CC)[C@@H]3N(CC5)C4)C[C@H]1[C@]2(CO)C(=O)OC | 14.6 | 13.1 | 12.6 | 
C/C=C1/CN(C)[C@H]2Cc3c([nH]c4ccccc34)[C@H](c3cc4c5c([nH]c4cc3OC)[C@@]3(C(=O)OC)C[C@H]4C[C@H](CC)[C@H]3N(CC5)C4)C[C@H]1[C@]2(CO)C(=O)OC | 38 | 12.8 | 4.63 | 
